From US6492381B1, “Tricyclic carbamate compounds useful for inhibition of G-protein function and for treatment of proliferative diseases” (Schering Corp., priority 1993, dated 2002)
Read-outs that look alike come from different tables or passages of the source.

Experiments:
[1] = target: T1, farnesyl protein transferase (FPT) (Rattus norvegicus, UniProt Q02293+Q04631); test: In vitro enzyme assay: inhibition of farnesyl protein transferase; assay type: biochemical
T1 construct: were partially purified from rat brain by ammonium sulfate fractionation followed by Q-Sepharose; from tissue; host or cells: rat brain
Experimental: 1. In vitro enzyme assays: Inhibition of farnesyl protein transferase and geranylgeranyl protein transferase.
Human farnesyl protein transferase was also expressed in E. coli, using cDNA clones encoding both the α and β subunits. […] Two forms of val^12-Ha-Ras protein were prepared as substrates for these enzymes, differing in their carboxy terminal sequence. One form terminated in cysteine-valine-leucine-serine (Ras-CVLS) the other in cystein-valine-leucine-leucine (Ras-CVLL). Ras-CVLS is a substrate for the farnesyl protein transferase while Ras-CVLL is a substrate for geranylgeranyl protein transferase I. The cDNAs encoding these proteins were constructed so that the proteins contain an amino-terminal extension of 6 histidine residues. Both proteins were expressed in Escherichia coli and purified using metal chelate affinity chromatography. The radiolabelled isoprenyl pyrophosphate substrates, [^3H]farnesyl pyrophosphate and [^3H]geranylgeranyl pyrophosphate, were purchased from DuPont/New England Nuclear.
The reaction was allowed to proceed for 30 minutes at room temperature and then stopped with 0.5 ml of 4% sodium dodecyl sulfate (SDS) followed by 0.5 ml of cold 30% trichloracetic acid (TCA). Samples were allowed to sit on ice for 45 minutes and precipitated Ras protein was then collected on GF/C filter paper mats using a Brandel cell harvester. […] Percent inhibition was calculated relative to the DMSO vehicle control.

[2] = system: Normal human HEPM fibroblasts; test: Cell Mat assay: inhibition of normal cell growth; assay type: cell-based; conditions: mIC50, normal cell monolayer
Experimental: (§1) Normal human HEPM fibroblasts were planted in 3.5 cm dishes at a density of 5×10^4 cells/dish in 2 ml growth medium, and incubated for 3-5 d to achieve confluence. Medium was aspirated from each dish and the indicator tumor cells, T24-BAG4 human bladder carcinoma cells expressing an activated H-ras gene, were planted on top of the fibroblast monolayer at a density of 2×10^3cells/dish in 2 ml growth medium, and allowed to attach overnight. Compound-induced colony inhibition was assayed by addition of serial dilutions of compound directly to the growth medium 24 h after tumor cell planting, and incubating cells for an additional 14 d to allow colony formation. Assays were terminated by rinsing monolayers twice with phosphate-buffered saline (PBS), fixing the monolayers with a 1% glutaraldehyde solution in PBS, then visualizing tumor cells by staining with X-Gal (Price, J., et al., Lineage analysis in the vertebrate nervous system by retrovirus-mediated gene transfer, Proc. Natl. Acad. Sci.84, 156-160(1987)). […] Both IC50 values were obtained by determining the density of tumor cells and mat cells by visual inspection and enumeration of cells per colony and the number of colonies under the microscope. The therapeutic index of the compound was quantitatively expressed as the ratio of mIC50/tIC50, with values greater than one indicative of tumor target specificity.

[3] = system: T24-BAG4 human bladder carcinoma cells expressing an activated H-ras gene; test: Cell Mat assay: inhibition of tumor cell growth; assay type: cell-based; conditions: for IC50: tIC50
Experimental: as §1

[4] = Ras-CVLS farnesylation, partially purified rat brain FPT, read-out: FPT IC50

Which IC50 [1, 4] does the source give for `CCOC(=O)N1CCC(C2c3cc(CC)c(Cl)cc3C=Cc3cccnc32)CC1` (stereo not drawn) [Compound 622.00, 8-chloro-11-(1-ethoxycarbonyl-4-piperidinyl)-9-ethyl-11H-benzo[5,6]cyclohepta[1,2-b]pyridine] here?
The IC50 was 10.5 µM.

How did the IC50 ([2]; Homo sapiens, Fibroblast) turn out when `CCOC(=O)N1CCC(=C2c3ccc(Cl)cc3CCc3cc(Br)cnc32)CC1` [Compound 642.00] was run?
The IC50 was > 50 µM.

And the “selective antiproliferative activity against Ras-transformed cells versus normal cells” value [3]?
Its value is “little”.

And the IC50 ([3]; Homo sapiens)?
Its IC50 is 50 µM.

What about the IC50 [1, 4] of the same compound?
Its IC50 is 2.17 µM.

Which IC50 [1, 4] does the source give for `O=C(Oc1ccc[n+]([O-])c1)N1CCN(C2c3ccc(Cl)cc3CCc3cccnc32)CC1` (stereo not drawn) [Compound 800.00] here?
The IC50 was 3.7 µM.

Which IC50 [1, 4] does the source give for `CCOC(=O)N1CCC(F)(C2c3ccc(Cl)cc3CCc3cccnc32)CC1` (stereo not drawn) [Compound 520.00] here?
The IC50 was 10.4 µM.

With `CCOC(=O)N1CCN([C@@H]2c3ccc(Cl)cc3CCc3cccnc32)CC1` [Compound 602.00, (+) Ethyl 4-(8-chloro-6,11-dihydro-11H-benzo[5,6]-cyclohepta[1,2-b]pyridin-11(R)-yl)-1-piperazine Carboxylate] as the compound, how does the IC50 [1, 4] read?
Its IC50 is 34.1 µM.

With `CCOC(=O)N1CCC(=C2c3ccc(Cl)cc3CCc3cc(OC)cnc32)CC1` [Compound 658.00, 8-chloro-3-methoxy-11-(1-ethoxycarbonyl-4-piperidylidene)-6,11-dihydro-5H-benzo[5,6]-cyclohepta[1,2-b]pyridine] as the compound, how does the IC50 [1, 4] read?
Its IC50 is 11.5 µM.

With `CN1CCCC(OC(=O)N2CCN(C3c4ccc(Cl)cc4CCc4cccnc43)CC2)C1` (stereo not drawn) [Compound 804.00] as the compound, how does the IC50 [1, 4] read?
Its IC50 is 2.1 µM.

Which IC50 [1, 4] does the source give for `O=C(Oc1cccnc1)N1CCC(=C2c3ccc(Cl)cc3CCc3c(O)ccnc32)CC1` [Compound 648.00, 3-pyridyl 4-[4-hydroxy-8-chloro-5,6-dihydro-11H-benzo[5,6]cyclohepta[1,2-b]pyridin-11-ylidene]-1-piperidine Carboxylate] here?
Its IC50 is 6.7 µM.

How did the IC50 [1] turn out when `O=C(Oc1ccc[n+]([O-])c1)N1CCN(C2c3ccc(Cl)cc3CCc3cc(Br)cnc32)CC1` (stereo not drawn) [Compound 801.00] was run?
Its IC50 is 0.28 µM.

With `CCOC(=O)N1CCC(=C2c3ccc(Cl)cc3CCc3c2ncc(Br)c3O)CC1` [Compound 660.00, Ethyl 4-[3-bromo-4-hydroxy-8-chloro-5,6-dihydro-11H-benzo[5,6]cyclohepta[1,2-b]pyridin-11-ylidene]-1-piperidine Carboxylate] as the compound, how does the inhibition at 13 µM ([1]; @ 13 μM) read?
The inhibition at 13 µM was 22%.

Which IC50 [1, 4] does the source give for `COC(=O)N1CCC(=C2c3ccc(Cl)cc3CCc3cccnc32)CC1` [Compound 560.00] here?
Its IC50 is 17.6 µM.

Which IC50 [1, 4] does the source give for `CCOC(=O)N1CCC(=C2c3ccc(Cl)cc3CCc3c(Cl)ccnc32)CC1` [Compound 596.00] here?
The IC50 was 10.5 µM.

Which IC50 [1, 4] does the source give for `CCOC(=O)N1CCN([C@H]2c3ccc(Cl)cc3CCc3cccnc32)CC1` [Compound 604.00, (−) Ethyl 4-(8-chloro-6,11-dihydro-11H-benzo[5,6]-cyclohepta[1,2-b]pyridin-11(S)-yl)-1-piperazinecarboxylate] here?
Its IC50 is 10.5 µM.

Which IC50 [1, 4] does the source give for `CN1CCCC(OC(=O)N2CCN(C3c4ccc(Cl)cc4CCc4cc(Br)cnc43)CC2)C1` (stereo not drawn) [Compound 805.00] here?
Its IC50 is 0.3 µM.

`CCOC(=O)N1CCC(=C2c3ccc(Cl)cc3C=Cc3cccnc32)CC1` [Compound 666.00] was tested. Which IC50 [1, 4] did it give?
Its IC50 is 10.8 µM.

With `O=C(OCc1ccccc1)N1CCC(=C2c3ccc(Cl)cc3CCc3cccnc32)CC1` [Compound 570.00] as the compound, how does the IC50 [1, 4] read?
Its IC50 is 8 µM.

How did the IC50 [1, 4] turn out when `O=C(Oc1cccnc1)N1CCC(=C2c3ccc(Cl)cc3CCc3c2ncc(Br)c3O)CC1` [Compound 662.00, 3-pyridyl 4-[3-bromo-4-hydroxy-8-chloro-5,6-dihydro-11H-benzo[5,6]cyclohepta[1,2-b]pyridin-11-ylidene]-1-piperidine Carboxylate] was run?
The IC50 was 3.8 µM.

Which results are given for `O=C(OCc1ccccc1)N1CCN(C2c3ccc(Cl)cc3CCc3cccnc32)CC1` (stereo not drawn) [Compound 614.00, Phenylmethyl 4-(8-chloro-6,11-dihydro-5H-benzo[5,6]-cyclohepta[1,2-b]pyridin-11-yl)-1-piperazinecarboxylate]?
IC50 ([2]; Homo sapiens, Fibroblast): > 50 µM; selective antiproliferative activity against Ras-transformed cells versus normal cells [3]: little; IC50 ([3]; Homo sapiens): 50 µM; IC50 [1, 4]: > 20 µM

With `CN1CCC(OC(=O)N2CCN(C3c4ccc(Cl)cc4CCc4cccnc43)CC2)CC1` (stereo not drawn) [Compound 802.00] as the compound, how does the FPT inhibition, second line of the FPT IC50 (μM) column ([1]; (1.3), the values are: FPT inhibition at 1.3 µM) read?
Its FPT inhibition, second line of the FPT IC50 (μM) column is 35%.

What about the IC50 [1, 4] of the same compound?
The IC50 was > 1.3 µM.

With `CCOC(=O)N1CCC(=C2c3ccc(Cl)cc3CCc3c(O)ccnc32)CC1` [Compound 646.00, Ethyl 4-[4-hydroxy-8-chloro-5,6-dihydro-11H-benzo[5,6]cyclohepta[1,2-b]pyridin-11-ylidene]-1-piperidine Carboxylate] as the compound, how does the inhibition at 15 µM ([1]; @ 15 μM) read?
Its inhibition at 15 µM is 30%.

`O=C(Oc1cccnc1)N1CCC(=C2c3ccc(Cl)cc3CCc3c(On4nnc5ccccc54)ccnc32)CC1` [Compound 656.00, 3-pyridyl 4-[4-[(1H-benzotriazol-1-yl)oxy]-8-chloro-5,6-dihydro-11H-benzo[5,6]cyclohepta[1,2-b]pyridin-11-ylidene[-1-piperidine Carboxylate] was tested. Which IC50 [1, 4] did it give?
Its IC50 is 0.71 µM.

`O=C(Oc1cccnc1)N1CCC(=C2c3ccc(Cl)cc3CCc3c(Cl)ccnc32)CC1` [Compound 644.00, 3-pyridyl 4-(4,8-dichloro-5,6-dihydro-11H-benzo[5,6]cyclohepta[1,2-b]pyridin-11-ylidene)-1-piperidine Carboxylate] was tested. Which IC50 [1, 4] did it give?
The IC50 was 1.03 µM.

For `CCOC(=O)N1CCC(=C2c3cc(Cl)c(Cl)cc3CCc3cccnc32)CC1` [Compound 555.00], which IC50 [1, 4] is on record?
The IC50 was 37.8 µM.

For `CCOC(=O)N1CCC(=C2c3ccc(Cl)cc3CCc3ccc[n+]([O-])c32)CC1` [Compound 515.00, Ethyl 4-(8-chloro-5,6-dihydro-11H-benzo[5,6]cyclohepta[1,2-B]pyridin-11-ylidene)-1-piperidinecarboxylate N-oxide], which IC50 [2] is on record?
The IC50 was > 100 µM.

What about the “selective antiproliferative activity against Ras-transformed cells versus normal cells” value [3] of the same compound?
Its value is “little”.

What about the IC50 [3] of the same compound?
The IC50 was 75 µM.

What about the IC50 [1, 4] of the same compound?
Its IC50 is 37.6 µM.

`O=C(Oc1cccnc1)N1CCC(=C2c3ccc(Cl)cc3C=Cc3cccnc32)CC1` [Compound 664.00] was tested. Which IC50 [1, 4] did it give?
Its IC50 is 1.46 µM.

What does the source list for `O=C(Oc1ccccc1)N1CCN(C2c3ccc(Cl)cc3C=Cc3cccnc32)CC1` (stereo not drawn) [Example 32]?
IC50 ([2]; Homo sapiens, Fibroblast): 25 µM; IC50 ([3]; Homo sapiens): 25 µM; IC50 [1]: 0.88 µM

How did the IC50 [1, 4] turn out when `CCOC(=O)N1CCC(C2c3ccc(Cl)cc3C=Cc3c(Cl)ccnc32)CC1` (stereo not drawn) [Compound 636.00] was run?
The IC50 was 7.4 µM.

Which IC50 [1, 4] does the source give for `CCOC(=O)N1CCC(=C2c3ccc(Br)cc3CCc3cccnc32)CC1` [Compound 540.00] here?
Its IC50 is 7 µM.

Which IC50 [1, 4] does the source give for `CCCCCCOC(=O)N1CCC(=C2c3ccc(Cl)cc3CCc3cccnc32)CC1` [Compound 590.00] here?
Its IC50 is 80 µM.

`CCOC(=O)N1CCC(=C2c3ccc(Cl)cc3CCc3cc(C)cnc32)CC1` [Compound 545.00] was tested. Which IC50 [1, 4] did it give?
The IC50 was 7.1 µM.
